Source: publication PMC11243693, “Synthesis and Biological Evaluation of New Compounds with Nitroimidazole Moiety” (Molecules, 2024)
In brackets after ≈: the same amount, converted by molar mass.

Experiments:
[1] = system: Candida tropicalis ATCC 1369; test: Broth microdilution, C. tropicalis ATCC 1369; assay type: cell-based; conditions: Ct 1369; for MFC/MIC Ratio: <4 fungicidal, ≥4 fungistatic
Protocol: (§1) The antibacterial activity of the obtained thiosemicarbazides and hydrazide–hydrazones was determined by evaluating their ability to inhibit microbial growth in vitro using the broth microdilution method, according to the guidelines of the European Committee on Antimicrobial Susceptibility Testing (EUCAST). The method involved the preparation of microbial suspensions with a standardized density of 0.5 on the McFarland scale (equivalent to 1.5 × 10^8 colony-forming units/mL for bacteria and […] for fungi). A solution of the test substances was then prepared (initial concentration 1000 µg/mL, diluted in sterile Mueller-Hinton broth for bacteria or Mueller-Hinton with 2% glucose for fungi). The test was carried out in 96-well polystyrene flat-bottom plates (Medlab, Poland) with 100 µL of appropriate sterile microbiological medium in each well. The first wells were filled with 200 µL of the test substance, diluted to the initial concentration, and then double-decreasing dilutions were made under aseptic conditions using an automatic pipette. The final step was the addition of a 10-fold diluted microbial suspension of 2 µL. At the same time, the following controls were included: (a) medium control (100 µL of sterile medium without microorganisms added), (b) microbial viability control, (c) test substance control (dilutions without added micro-organisms), (d) positive control of the drug used in the clinic. The plates thus prepared were incubated for 18 ± 2 h at 35 ± 2 °C under conditions optimal for the growth of the test microorganisms. After incubation, the spectrophotometric absorbance at 570 nm in each well of the plate was read. The aim of this part of the study was to determine two parameters: the minimum inhibitory concentration (MIC) and the minimum bactericidal or fungicidal concentration (MBC/MFC) of the test compound. […] The MBC value was determined by adding 5 µL of the contents of each well of the plate to solid sterile MHA or MHA + 2%glc medium for bacteria and fungi, respectively. The area on the plate where 99.9% inhibition of microbial growth was observed indicated the lethal concentration. In addition, the quotient MBC(MFC)/MIC could be determined to assess the nature of the activity of the test substance. If MBC(MFC)/MIC was <4, the test substance was bactericidal/fungicidal, whereas if MBC(MFC)/MIC was ≥4, it was bacteriostatic/fungistatic. Amoxicillin (Glentham Life Sciences, USA) and nystatin (Glentham Life Sciences, USA) were used as the controls for this assay.
(§2) The test was performed either on bacteria, comprising: Gram-positive (Staphylococcus aureus ATCC 25923, Staphylococcus aureus ATCC 6538, Staphylococcus aureus ATCC 43300 methicillin-resistant MRSA, Staphylococcus epidermidis ATCC 12228, Micrococcus luteus ATCC 10240, Bacillus subtilis ATCC 6633, Bacillus cereus ATCC 10876) and Gram-negative (Escherichia coli ATCC 25922, Pseudomonas aeruginosa ATCC 27853, Proteus mirabilis ATCC 12453, Klebsiella pneumoniae ATCC 13883) or yeast (Candida parapsilosis ATCC 22019, Candida glabrata ATCC 90030, Candida krusei ATCC 14243, Candida glabrata ATCC 15126, Candida tropicalis ATCC 1369, Candida auris CDC B11903, Candida lusitaniae ATCC 3449) reference strains from the American Type Culture Collection (ATCC) or the Centers for Disease Control and Prevention (CDC).

[2] = system: Bacillus subtilis ATCC 6633; test: Broth microdilution, B. subtilis ATCC 6633; assay type: cell-based; conditions: Bs 6633; for MBC/MIC Ratio: <4 bactericidal, ≥4 bacteriostatic
Protocol: as §1, §2

[3] = system: Candida glabrata ATCC 15126; test: Broth microdilution, C. glabrata ATCC 15126; assay type: cell-based; conditions: Cg 15126
Protocol: as §1, §2

[4] = system: Staphylococcus epidermidis ATCC 12228; test: Broth microdilution, S. epidermidis ATCC 12228; assay type: cell-based; conditions: Se 12228; for MBC/MIC Ratio: <4 bactericidal, ≥4 bacteriostatic
Protocol: as §1, §2

[5] = system: Bacillus cereus ATCC 10876; test: Broth microdilution, B. cereus ATCC 10876; assay type: cell-based; conditions: Bc 10876
Protocol: as §1, §2

[6] = system: Candida glabrata ATCC 90030; test: Broth microdilution, C. glabrata ATCC 90030; assay type: cell-based; conditions: Cg 90030
Protocol: as §1, §2

Candida auris CDC B11903 = test: Broth microdilution, C. auris CDC B11903; assay type: cell-based; conditions: Ca B11903
Protocol: as §1, §2

[7] = system: Staphylococcus aureus ATCC 6538; test: Broth microdilution, S. aureus ATCC 6538; assay type: cell-based; conditions: Sa 6538
Protocol: as §1, §2

[8] = system: Candida lusitaniae ATCC 3449; test: Broth microdilution, C. lusitaniae ATCC 3449; assay type: cell-based; conditions: Cl 3449
Protocol: as §1, §2

Candida spp. = test: Broth microdilution, Candida spp.; assay type: cell-based; conditions: range over both strains and the listed compounds
Protocol: as §1, §2

[9] = system: Staphylococcus aureus ATCC 25923; test: Broth microdilution, S. aureus ATCC 25923; assay type: cell-based; conditions: Sa 25923
Protocol: as §1, §2

[10] = system: Candida parapsilosis ATCC 22019; test: Broth microdilution, C. parapsilosis ATCC 22019; assay type: cell-based; conditions: Cp 22019
Protocol: as §1, §2

[11] = system: Micrococcus luteus ATCC 10240; test: Broth microdilution, M. luteus ATCC 10240; assay type: cell-based; conditions: Ml 10240; for MBC/MIC Ratio: <4 bactericidal, ≥4 bacteriostatic
Protocol: as §1, §2

[12] = system: Candida krusei ATCC 14243; test: Broth microdilution, C. krusei ATCC 14243; assay type: cell-based; conditions: Ck 14243
Protocol: as §1, §2

[13] = system: Staphylococcus aureus ATCC 43300 methicillin-resistant MRSA; test: Broth microdilution, S. aureus ATCC 43300 MRSA; assay type: cell-based; conditions: Sa 43300 MRSA
Protocol: as §1, §2

With Cn1cc([N+](=O)[O-])nc1C(=O)NNC(=S)Nc1ccccc1Cl [Compound 3] the MFC [1] was 500 µg/mL (≈ 1410 µM), the MIC [1] was 250 µg/mL (≈ 705 µM) and the “MFC/MIC Ratio” value [1] was 2. For the same compound, the MBC [2] was 125 µg/mL (≈ 352 µM), the MIC [2] was 125 µg/mL (≈ 352 µM) and the “MBC/MIC Ratio” value [2] was 1. It also gave an MIC [3] greater than 1000 µg/mL, an MBC [4] of 500 µg/mL (≈ 1410 µM) and an MIC [4] of 250 µg/mL (≈ 705 µM). For the same compound, the “MBC/MIC Ratio” value [4] was 2, the MBC [5] was greater than 1000 µg/mL and the MIC [5] was 1000 µg/mL (≈ 2820 µM). For the same compound, the MIC [6] was greater than 1000 µg/mL, the MIC (Candida auris CDC B11903) was greater than 1000 µg/mL and the MBC [7] was greater than 1000 µg/mL. The MIC [7] was 500 µg/mL (≈ 1410 µM), the MIC [8] was greater than 1000 µg/mL and the “MBC (range, C. parapsilosis ATCC 22019 and C. tropicalis ATCC 1369)” value (Candida spp.) was 500 to 1000 µg/mL. The “MIC (range, C. parapsilosis ATCC 22019 and C. tropicalis ATCC 1369)” value (Candida spp.) was 62.5 to 1000 µg/mL, the MBC [9] was greater than 1000 µg/mL and the MIC [9] was 250 µg/mL (≈ 705 µM). The MFC [10] was greater than 1000 µg/mL, the MIC [10] was 250 µg/mL (≈ 705 µM) and the MBC [11] was 250 µg/mL (≈ 705 µM). The MIC [11] was 250 µg/mL (≈ 705 µM), the “MBC/MIC Ratio” value [11] was 1 and the MIC [12] was greater than 1000 µg/mL. For the same compound, the MBC [13] was greater than 1000 µg/mL and the MIC [13] was 1000 µg/mL (≈ 2820 µM).

For Cn1cc([N+](=O)[O-])nc1C(=O)NNC(=S)Nc1ccccc1C(F)(F)F [Compound 12], the MFC [1] was 1000 µg/mL (≈ 2580 µM), the MIC [1] was 500 µg/mL (≈ 1290 µM) and the “MFC/MIC Ratio” value [1] was 2. For the same compound, the MBC [2] was 250 µg/mL (≈ 644 µM), the MIC [2] was 250 µg/mL (≈ 644 µM) and the “MBC/MIC Ratio” value [2] was 1. The MIC [3] was greater than 1000 µg/mL, the MBC [4] was 500 µg/mL (≈ 1290 µM) and the MIC [4] was 500 µg/mL (≈ 1290 µM). The “MBC/MIC Ratio” value [4] was 1, the MBC [5] was 500 µg/mL (≈ 1290 µM) and the MIC [5] was 500 µg/mL (≈ 1290 µM). The “MBC/MIC Ratio” value ([5]; <4 bactericidal, ≥4 bacteriostatic) was 1, the MIC [6] was greater than 1000 µg/mL and the MIC (Candida auris CDC B11903) was greater than 1000 µg/mL. For the same compound, the MBC [7] was greater than 1000 µg/mL, the MIC [7] was 500 µg/mL (≈ 1290 µM) and the MIC [8] was greater than 1000 µg/mL. For the same compound, the “MBC (range, C. parapsilosis ATCC 22019 and C. tropicalis ATCC 1369)” value (Candida spp.) was 500 to 1000 µg/mL, the “MIC (range, C. parapsilosis ATCC 22019 and C. tropicalis ATCC 1369)” value (Candida spp.) was 62.5 to 1000 µg/mL and the MBC [9] was greater than 1000 µg/mL. The MIC [9] was 250 µg/mL (≈ 644 µM), the MFC [10] was greater than 1000 µg/mL and the MIC [10] was 125 µg/mL (≈ 322 µM). The MBC [11] was 500 µg/mL (≈ 1290 µM), the MIC [11] was 250 µg/mL (≈ 644 µM) and the “MBC/MIC Ratio” value [11] was 2. For the same compound, the MIC [12] was greater than 1000 µg/mL, the MBC [13] was greater than 1000 µg/mL and the MIC [13] was 1000 µg/mL (≈ 2580 µM).

With Cn1cc([N+](=O)[O-])nc1C(=O)NNC(=S)Nc1cccc(Cl)c1 [Compound 4] the MFC [1] was 500 µg/mL (≈ 1410 µM), the MIC [1] was 250 µg/mL (≈ 705 µM) and the “MFC/MIC Ratio” value [1] was 2. For the same compound, the MBC [2] was 62.5 µg/mL (≈ 176 µM), the MIC [2] was 62.5 µg/mL (≈ 176 µM) and the “MBC/MIC Ratio” value [2] was 1. The MIC [3] was greater than 1000 µg/mL, the MBC [4] was 125 µg/mL (≈ 352 µM) and the MIC [4] was 125 µg/mL (≈ 352 µM). The “MBC/MIC Ratio” value [4] was 1, the MBC [5] was greater than 1000 µg/mL and the MIC [5] was 250 µg/mL (≈ 705 µM). It also gave an MIC [6] greater than 1000 µg/mL, an MIC (Candida auris CDC B11903) greater than 1000 µg/mL and an MBC [7] greater than 1000 µg/mL. For the same compound, the MIC [7] was 250 µg/mL (≈ 705 µM), the MIC [8] was greater than 1000 µg/mL and the “MBC (range, C. parapsilosis ATCC 22019 and C. tropicalis ATCC 1369)” value (Candida spp.) was 500 to 1000 µg/mL. For the same compound, the “MIC (range, C. parapsilosis ATCC 22019 and C. tropicalis ATCC 1369)” value (Candida spp.) was 62.5 to 1000 µg/mL, the MBC [9] was greater than 1000 µg/mL and the MIC [9] was 62.5 µg/mL (≈ 176 µM). It also gave an MFC [10] greater than 1000 µg/mL, an MIC [10] of 62.5 µg/mL (≈ 176 µM) and an MBC [11] of 500 µg/mL (≈ 1410 µM). The MIC [11] was 125 µg/mL (≈ 352 µM), the “MBC/MIC Ratio” value [11] was 4 and the MIC [12] was greater than 1000 µg/mL. It also gave an MBC [13] greater than 1000 µg/mL and an MIC [13] of 500 µg/mL (≈ 1410 µM).

With COc1ccc(C=NNC(=O)c2nc([N+](=O)[O-])cn2C)cc1 [Compound 25, N’-[(4-methoxyphenyl)methylidene]-1-methyl-4-nitro-1H-imidazole-2-carbohydrazide] the melting point was 224 to 226 °C.

With Cn1cc([N+](=O)[O-])nc1C(=O)NN=Cc1ccccc1F [Compound 22, N’-[(2-fluorophenyl)methylidene]-1-methyl-4-nitro-1H-imidazole-2-carbohydrazide] the melting point was 214 to 217 °C.

COc1ccccc1C=NNC(=O)c1nc([N+](=O)[O-])cn1C [Compound 23, N’-[(2-methoxyphenyl)methylidene]-1-methyl-4-nitro-1H-imidazole-2-carbohydrazide] gave a melting point of 205 to 208 °C.
